From patent US7868204B2, “Inhibitors of histone deacetylase” (MethylGene Inc., priority 2001, dated 2011)
pEC50, pIC50: −log10 of the molar value. Like-named read-outs stand apart in the source and are kept apart here.

Assays:
[1] = target: T1, cloned recombinant human HDAC-1 (Homo sapiens, UniProt Q13547); assay: Human HDAC-1 enzyme inhibition, Assay 1 ([3H]-acetylated histone substrate, scintillation counting); type: biochemical; settings: read-out: Human HDAC-1 IC50
T1 construct: made in house; host or cells: Baculovirus insect cell expression system
T1 sequence (Q13547 whole entry): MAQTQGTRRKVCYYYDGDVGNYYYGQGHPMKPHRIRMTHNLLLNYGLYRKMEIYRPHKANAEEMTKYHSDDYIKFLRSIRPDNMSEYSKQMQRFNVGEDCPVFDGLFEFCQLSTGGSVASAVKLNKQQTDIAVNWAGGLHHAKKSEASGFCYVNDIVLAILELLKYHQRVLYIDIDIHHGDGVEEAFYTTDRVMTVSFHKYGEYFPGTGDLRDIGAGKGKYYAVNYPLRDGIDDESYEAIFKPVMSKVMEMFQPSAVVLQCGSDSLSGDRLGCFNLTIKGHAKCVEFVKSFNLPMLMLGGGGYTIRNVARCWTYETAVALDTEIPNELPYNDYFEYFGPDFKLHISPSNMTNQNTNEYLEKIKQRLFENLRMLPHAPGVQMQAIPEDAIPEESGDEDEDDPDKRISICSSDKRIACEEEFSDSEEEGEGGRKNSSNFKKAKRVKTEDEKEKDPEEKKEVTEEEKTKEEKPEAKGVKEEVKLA
Procedure, shortened: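 Activity read as [3H]-acetic acid liberated from labeled substrate, ethyl acetate-extracted and scintillation-counted. Compounds preincubated 30 min at 4° C. with baculovirus-expressed, purified human HDAC-1. Dose-response curves give IC50 as concentration producing fifty percent of maximal inhibition.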

[2] = system: acetylated histone H-4 in T24 human bladder cancer cells; assay: Histone H4 acetylation in whole cells by immunoblots; type: cell-based; settings: 16 h
Description: T24 human bladder cancer cells growing in culture were incubated with HDAC inhibitors for 16 h. […] of total histone protein was loaded onto SDS/PAGE and transferred to nitrocellulose membranes. Membranes were probed with polyclonal antibodies specific for acetylated histone H-4 (Upstate Biotech Inc.), followed by horse radish peroxidase conjugated secondary antibodies (Sigma). Enhanced Chemiluminescence (ECL) (Amersham) detection was performed using Kodak films (Eastman Kodak). Acetylated H-4 signal was quantified by densitometry.

HCT116 cells = assay: MTT assay; type: cell-based; settings: Homo sapiens, HCT-116, 72 h, HCT116 cells, 72 hours
Procedure, shortened: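 Read-out: MTT (0.5 mg/ml final, 4 h) after solubilization in 50% DMF/20% SDS, pH 4.7, with OD translated into cell number via the line's growth curve. Compound treatment lasted 72 h at 37 °C in 5% CO2, starting a day after plating.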

[3] = T-24, Table 5a, read-out: H4Ac (T24) EC50
[4] = T-24, Table 5c, read-out: H4Ac (T24) EC50
[5] = T-24, Table 5E, read-out: H4 Ac (T24) EC50
[6] = T-24, Table 5F, read-out: H4 Ac (T24) EC50

| Compound | pIC50 ([1]; Table 5a) | pEC50 [2, 3] | pIC50 (HCT116 cells; Table 5a) | pIC50 ([1]; Table 5E) | pEC50 [2, 5] | pIC50 (HCT116 cells; Table 5E) | other results |
| --- | --- | --- | --- | --- | --- | --- | --- |
| Nc1nc(NCCc2ccccc2)nc(NCc2ccc(C(=O)Nc3ccccc3N)cc2)n1 [Cpd 20, 4-[(4-Amino-6-phenethylamino-[1,3,5]triazin-2-ylamino)-methyl]-N-(2-amino-phenyl)-benzamide] | 6.30 | 6.00 | 6.52 |  |  |  |  |
| COc1cc(Nc2nc(N)nc(NCc3ccc(C(=O)Nc4ccccc4N)cc3)n2)cc(OC)c1OC [Cpd 21, N-(2-Amino-phenyl)-4-{[4-amino-6-(3,4,5-trimethoxy-phenylamino)-[1,3,5]triazin-2-ylamino]-methyl}-benzamide] | 5.40 | 4.60 | 5.40 |  |  |  |  |
| Nc1nc(NCc2ccc(C(=O)Nc3ccccc3N)cc2)nc(N2CCc3ccccc32)n1 [Cpd 22, 4-{[4-Amino-6-(2,3-dihydro-indol-1-yl)-[1,3,5]triazin-2-ylamino]-methyl}-N-(2-amino-phenyl)-benzamide] | 5.52 | 6.00 | 6.10 |  |  |  |  |
| COc1ccccc1CCNc1nc(N)nc(NCc2ccc(C(=O)Nc3ccccc3N)cc2)n1 [Cpd 23, 4-({4-Amino-6-[2-(2-methoxy-phenyl)-ethylamino]-[1,3,5]triazin-2-ylamino}-methyl)-N-(2-amino-phenyl)-benzamide] | 5.70 | 6.00 | 6.15 |  |  |  |  |
| Nc1nc(NCCc2ccccc2F)nc(NCc2ccc(C(=O)Nc3ccccc3N)cc2)n1 [Cpd 24, 4-({4-Amino-6-[2-(2-fluoro-phenyl)-ethylamino]-[1,3,5]triazin-2-ylamino)-methyl)-N-(2-amino-phenyl)-benzamide] | 5.52 | 6.00 | 6.22 |  |  |  |  |
| Nc1ccccc1NC(=O)c1ccc(CNc2nc(NCc3ccccc3)nc(NC3Cc4ccccc4C3)n2)cc1 [Cpd 25] | 6.10 | 5.30 | 6.52 |  |  |  |  |
| Nc1nc(NCc2ccc(C(=O)Nc3ccccc3N)cc2)nc(N2Cc3ccccc3C2)n1 [Cpd 28] | 5.70 | 6.00 | 6.30 |  |  |  |  |
| Nc1nc(NCc2ccccc2)nc(NCc2ccc(C(=O)Nc3ccccc3N)cc2)n1 [Cpd 29, 4-[(4-Amino-6-benzylamino-[1,3,5]triazin-2-ylamino)-methyl]-N-(2-amino-phenyl)-benzamide] | 5.70 | 6.00 | 5.70 |  |  |  |  |
| Nc1ccccc1NC(=O)c1ccc(CNc2nc(NCc3cccnc3)nc(NC3Cc4ccccc4C3)n2)cc1 [Cpd 30] | 6.00 | 6.00 | 5.52 |  |  |  |  |
| Nc1ccccc1NC(=O)/C=C/c1ccc(NC(=O)OCc2cccnc2)cc1 [Cpd 55b] |  |  |  |  |  |  | pIC50 ([1]; Table 5c): 5.52; pEC50 [2, 4]: 5.52; pIC50 (HCT116 cells; Table 5c): 5.10 |
| Nc1nc(NCc2ccc(/C=C/C(=O)Nc3ccccc3N)cc2)nc(NC2Cc3ccccc3C2)n1 [Cpd 83] | 5.52 | 5.30 | 5.30 |  |  |  |  |
| Nc1ccccc1NC(=O)/C=C/c1ccc(NCc2cccnc2)nc1 [Cpd 90, N-(2-aminophenyl)-3-{6-[(pyridin-3-ylmethyl)-amino]-pyridin-3-yl}-acrylamide] |  |  |  |  |  |  | pIC50 ([1]; Table 5c): 5.00; pEC50 [2, 4]: 5.30; pIC50 (HCT116 cells; Table 5c): 5.30 |
| COc1ccc(CCNc2ccc(/C=C/C(=O)Nc3ccccc3N)cn2)cc1 [Cpd 95, N-(2-aminophenyl)-3-{6-[2-(4-methoxy-phenyl)-ethylamino]-pyridin-3-yl}-acrylamide] |  |  |  |  |  |  | pIC50 ([1]; Table 5c): 5.52; pEC50 [2, 4]: 5.00; pIC50 (HCT116 cells; Table 5c): 5.70 |
| Nc1ccccc1NC(=O)/C=C/c1ccc(NCc2cc(F)cc(F)c2)nc1 [Cpd 100, N-(2-aminophenyl)-3-[6-(3,5-difluoro-benzylamino)-pyridin-3-yl]-acrylamide] |  |  |  |  |  |  | pIC50 ([1]; Table 5c): 5.40; pEC50 [2, 4]: 5.30; pIC50 (HCT116 cells; Table 5c): 5.52 |
| Nc1ccccc1NC(=O)/C=C/c1ccc(NCc2cccc(C(F)(F)F)c2)nc1 [Cpd 101, N-(2-aminophenyl)-3-[6-(3-trifluoromethyl-benzylamino)-pyridin-3-yl]-acrylamide] |  |  |  |  |  |  | pIC50 ([1]; Table 5c): 5.52; pEC50 [2, 4]: 5.30; pIC50 (HCT116 cells; Table 5c): 6.05 |
| Nc1ccccc1NC(=O)/C=C/c1ccc(CNC(=O)OCc2cccnc2)cc1 [Cpd 104] |  |  |  |  |  |  | pIC50 ([1]; Table 5c): 5.00; pEC50 [2, 4]: 5.30; pIC50 (HCT116 cells; Table 5c): 5.05 |
| COc1ccc(NCc2ccc(/C=C/C(=O)Nc3ccccc3N)cc2)cn1 [Cpd 109, N-(2-Amino-phenyl)-3-{4-[(6-methoxy-pyridin-3-ylamino)-methyl]-phenyl}-acrylamide] |  |  |  |  |  |  | pIC50 ([1]; Table 5c): 5.30; pEC50 [2, 4]: 4.82; pIC50 (HCT116 cells; Table 5c): 5.10 |

| Compound | pIC50 ([1]; Table 5a) | pEC50 [2, 3] | pIC50 (HCT116 cells; Table 5a) | pIC50 ([1]; Table 5E) | pEC50 [2, 5] | pIC50 (HCT116 cells; Table 5E) | other results |
| --- | --- | --- | --- | --- | --- | --- | --- |
| Nc1ccccc1NC(=O)/C=C/c1ccc(NC/C=C/c2ccccc2)nc1 [Cpd 112] |  |  |  |  |  |  | pIC50 ([1]; Table 5c): 5.70; pEC50 [2, 4]: 5.30; pIC50 (HCT116 cells; Table 5c): 5.30 |
| Nc1ccccc1NC(=O)c1ccc(CSc2nc3ccc(NCCN4CCOCC4)cc3s2)cc1 [Cpd 128, N-(2-Amino-phenyl)-4-[6-(2-morpholin-4-yl-ethylamino)-benzothiazol-2-ylsulfanylmethyl]-benzamide] |  |  |  | 6.00 | 5.30 | 6.52 |  |
| Nc1ccccc1NC(=O)c1ccc(CSc2ccc3ccccc3n2)cc1 [Cpd 131, N-(2-Amino-phenyl)-4-(quinolin-2-ylsulfanylmethyl)-benzamide] |  |  |  | 6.52 | 5.70 | 6.05 |  |
| Cn1ccnc1SCc1ccc(C(=O)Nc2ccccc2N)cc1 [Cpd 139, N-(2-Amino-phenyl)-4-(1-methyl-1H-imidazol-2-ylsulfanylmethyl]-benzamide] |  |  |  | 5.52 | 5.30 | 5.52 |  |
| Nc1ccccc1NC(=O)c1ccc(CN2C(=O)c3ccccc3C2=O)cc1 [Cpd 149, N-(2-Amino-phenyl)-4-(1,3-dioxo-1,3-dihydro-isoindol-2-ylmethyl)-benzamide] |  |  |  | 6.00 | 5.30 | 5.30 |  |
| Nc1ccccc1NC(=O)c1ccc(Cn2nnc3ccccc3c2=O)cc1 [Cpd 155, N-(2-Amino-phenyl)-4-(4-oxo-4H-benzo[d][1,2,3]triazin-3-ylmethyl)-benzamide] |  |  |  | 6.40 | 6.00 | 6.40 |  |
| COc1cccc(-c2ccc(C(=O)Nc3ccccc3N)cc2)c1 [Cpd 166] |  |  |  | 5.70 | 5.30 | 5.30 |  |
| COc1cc(OC)nc(NCc2ccc(C(=O)Nc3ccccc3N)cc2)n1 [Cpd 169] |  |  |  | 6.52 | 6.00 | 6.15 |  |
| COc1ccc(CSc2ccc(C(=O)Nc3ccccc3N)cn2)cc1 [Cpd 171] |  |  |  | 5.10 | 4.60 | 5.52 |  |
| Nc1ccccc1NC(=O)c1ccc(CSc2nc3ccccc3s2)cc1 [Cpd 172] |  |  |  | 6.40 | 5.52 | 6.00 |  |
| Nc1ccccc1NC(=O)c1ccc(NCCc2ccc(F)cc2)nc1 [Cpd 174] |  |  |  | 5.40 | 5.30 | 6.40 |  |
| Nc1ccccc1NC(=O)c1ccc(NCc2ccc(F)cc2)nc1 [Cpd 175] |  |  |  | 5.40 | 5.52 | 6.30 |  |
| Nc1ccccc1NC(=O)c1ccc(CSc2nnc(-c3ccccc3)o2)cc1 [Cpd 177] |  |  |  | 6.00 | 6.00 | 6.40 |  |
| Nc1ccccc1NC(=O)c1ccc(Cn2c(=O)oc3ccccc3c2=O)cc1 [Cpd 179] |  |  |  |  |  |  | pIC50 ([1]; Table 5F): 6.00; pEC50 [2, 6]: 6.00; pIC50 (HCT116 cells; Table 5F): 6.52 |
| CCC1(C)CC(=O)N(Cc2ccc(C(=O)Nc3ccccc3N)cc2)C(=O)C1 [Cpd 180] |  |  |  |  |  |  | pIC50 ([1]; Table 5F): 5.52; pEC50 [2, 6]: 5.30; pIC50 (HCT116 cells; Table 5F): 5.70 |
| CCn1c(=O)n(Cc2ccc(C(=O)Nc3ccccc3N)cc2)c(=O)c2ccccc21 [Cpd 181] |  |  |  |  |  |  | pIC50 ([1]; Table 5F): 6.30; pEC50 [2, 6]: 6.00; pIC50 (HCT116 cells; Table 5F): 6.40 |
